Experimental data taken from patent US12637469B2, “1H-pyrazole derivative and application thereof as dual target inhibitor of Syk and VEGFR2” (Ocumension Therapeutics (Suzhou) Co., Ltd., priority 2020, dated 2026).

How the values were obtained:
Test in all cases: Eurofins KinaseProfiler off-target kinase inhibition
Format in all cases: biochemical
JAK2(h) = target: T1, JAK2(h) (Homo sapiens, UniProt O60674)
T1 construct: purchased Eurofins (KinaseProfiler service)
Protocol: (§1) In order to investigate the specificity of the inhibition of the target by the compound, in this study, the activity and selectivity of test compound 1 on the off-target kinases in related pathways were tested on the Eurofins kinaseProfiler™ platform, and compound screening and analysis were conducted using IC50 value as the indicator.
(§2) Compound 1 was detected for each selected kinase using the standard Eurofins Kinase Profiler™ protocol, which followed the relevant standard operating procedures. The IC50 values of the inhibitory activity of the test compound 1 on 67 kinases including Abl(h), B-Raf(h), BTK(h) and JAK(h) were analyzed.

JNK3(h) = target: T2, JNK3(h) (Homo sapiens, UniProt P53779)
T2 construct: purchased Eurofins (KinaseProfiler service)
Protocol: as §1, §2

Flt3(h) = target: T3, Flt3(h) (Homo sapiens, UniProt P36888)
T3 construct: purchased Eurofins (KinaseProfiler platform)
Protocol: as §1, §2

MAP4K4(h) = target: T4, MAP4K4(h) (Homo sapiens, UniProt O95819)
T4 construct: purchased Eurofins (KinaseProfiler service)
T4 sequence (O95819 whole entry): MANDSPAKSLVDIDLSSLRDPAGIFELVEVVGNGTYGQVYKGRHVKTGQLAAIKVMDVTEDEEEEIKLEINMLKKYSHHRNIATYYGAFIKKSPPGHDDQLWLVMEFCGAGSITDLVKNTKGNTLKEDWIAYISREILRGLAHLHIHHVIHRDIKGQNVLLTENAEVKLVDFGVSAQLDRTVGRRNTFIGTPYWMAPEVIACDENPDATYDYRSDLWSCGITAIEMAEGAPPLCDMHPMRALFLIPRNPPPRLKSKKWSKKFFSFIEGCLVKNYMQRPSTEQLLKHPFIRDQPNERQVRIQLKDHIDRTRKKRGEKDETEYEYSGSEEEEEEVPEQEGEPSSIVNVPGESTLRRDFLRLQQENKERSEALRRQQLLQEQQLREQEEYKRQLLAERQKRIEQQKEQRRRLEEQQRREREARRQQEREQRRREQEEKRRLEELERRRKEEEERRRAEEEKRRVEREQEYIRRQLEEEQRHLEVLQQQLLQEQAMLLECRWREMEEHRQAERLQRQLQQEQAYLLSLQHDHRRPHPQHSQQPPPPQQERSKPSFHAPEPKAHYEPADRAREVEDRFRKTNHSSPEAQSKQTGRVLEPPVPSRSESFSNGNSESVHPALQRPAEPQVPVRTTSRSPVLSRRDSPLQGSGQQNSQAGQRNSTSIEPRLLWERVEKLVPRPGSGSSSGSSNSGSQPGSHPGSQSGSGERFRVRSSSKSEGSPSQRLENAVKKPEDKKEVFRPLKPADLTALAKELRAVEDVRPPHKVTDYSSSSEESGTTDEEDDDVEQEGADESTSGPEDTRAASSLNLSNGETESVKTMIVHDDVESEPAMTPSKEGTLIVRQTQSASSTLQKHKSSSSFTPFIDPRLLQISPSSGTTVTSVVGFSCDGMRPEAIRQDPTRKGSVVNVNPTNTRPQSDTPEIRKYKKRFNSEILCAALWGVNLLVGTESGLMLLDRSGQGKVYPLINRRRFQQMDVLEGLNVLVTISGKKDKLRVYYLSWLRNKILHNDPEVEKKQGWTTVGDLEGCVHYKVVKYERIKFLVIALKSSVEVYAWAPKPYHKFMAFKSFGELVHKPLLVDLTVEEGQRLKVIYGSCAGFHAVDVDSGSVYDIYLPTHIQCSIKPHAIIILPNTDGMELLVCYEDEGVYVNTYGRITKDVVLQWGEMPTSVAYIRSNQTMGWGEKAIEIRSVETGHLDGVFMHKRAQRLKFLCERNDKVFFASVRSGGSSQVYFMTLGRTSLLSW
Protocol: as §1, §2

MKK6(h) = target: T5, MKK6(h) (Homo sapiens, UniProt P52564)
T5 construct: purchased Eurofins (KinaseProfiler service)
Protocol: as §1, §2

Rse(h) = target: T6, Rse(h) (Homo sapiens, UniProt Q06418)
T6 construct: purchased Eurofins (KinaseProfiler platform)
Protocol: as §1, §2

Yes(h) = target: T7, Yes(h) (Homo sapiens, UniProt P07947)
T7 construct: purchased Eurofins (KinaseProfiler platform)
T7 sequence (P07947 whole entry): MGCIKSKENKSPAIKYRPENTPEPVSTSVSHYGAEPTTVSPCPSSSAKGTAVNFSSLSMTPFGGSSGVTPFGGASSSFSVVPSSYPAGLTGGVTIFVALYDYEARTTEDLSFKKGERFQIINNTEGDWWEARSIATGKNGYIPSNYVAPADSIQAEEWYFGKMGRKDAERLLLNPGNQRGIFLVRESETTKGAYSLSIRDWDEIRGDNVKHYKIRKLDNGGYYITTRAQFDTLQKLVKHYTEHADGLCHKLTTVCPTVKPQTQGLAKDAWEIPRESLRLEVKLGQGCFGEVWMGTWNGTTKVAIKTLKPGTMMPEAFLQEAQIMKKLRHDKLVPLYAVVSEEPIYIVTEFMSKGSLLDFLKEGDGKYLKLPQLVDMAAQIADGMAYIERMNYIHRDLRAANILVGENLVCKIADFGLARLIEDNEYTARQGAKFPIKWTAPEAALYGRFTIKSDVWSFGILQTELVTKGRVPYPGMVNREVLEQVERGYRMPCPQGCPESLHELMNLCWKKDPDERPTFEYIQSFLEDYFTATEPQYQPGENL
Protocol: as §1, §2

B-Raf(h) = target: T8, B-Raf(h) (Homo sapiens, UniProt P15056)
T8 construct: purchased Eurofins (KinaseProfiler platform)
Protocol: as §1, §2

Lck(h)activated = target: T9, Lck(h)activated (Homo sapiens, UniProt P06239)
T9 construct: purchased Eurofins (KinaseProfiler service)
Protocol: as §1, §2

TYK2(h) = target: T10, TYK2(h) (Homo sapiens, UniProt P29597)
T10 construct: purchased Eurofins (KinaseProfiler platform)
Protocol: as §1, §2

Src(1-530)(h) = target: T11, Src(1-530)(h) (Homo sapiens, UniProt P12931)
T11 construct: Src(1-530)(h); purchased Eurofins (KinaseProfiler platform)
Protocol: as §1, §2

Flt1(h) = target: T12, Flt1(h) (Homo sapiens, UniProt P17948)
T12 construct: purchased Eurofins (KinaseProfiler platform)
Protocol: as §1, §2

Hck(h)activated = target: T13, Hck(h)activated (Homo sapiens, UniProt P08631)
T13 construct: purchased Eurofins (KinaseProfiler service)
Protocol: as §1, §2

FAK(h) = target: T14, FAK(h) (Homo sapiens, UniProt Q05397)
T14 construct: purchased Eurofins (KinaseProfiler service)
Protocol: as §1, §2

Tie2(h) = target: T15, Tie2(h) (Homo sapiens, UniProt Q02763)
T15 construct: purchased Eurofins (KinaseProfiler platform)
Protocol: as §1, §2

SAPK4(h) = target: T16, SAPK4(h) (Homo sapiens, UniProt O15264)
T16 construct: purchased Eurofins (KinaseProfiler platform)
T16 sequence (O15264 whole entry): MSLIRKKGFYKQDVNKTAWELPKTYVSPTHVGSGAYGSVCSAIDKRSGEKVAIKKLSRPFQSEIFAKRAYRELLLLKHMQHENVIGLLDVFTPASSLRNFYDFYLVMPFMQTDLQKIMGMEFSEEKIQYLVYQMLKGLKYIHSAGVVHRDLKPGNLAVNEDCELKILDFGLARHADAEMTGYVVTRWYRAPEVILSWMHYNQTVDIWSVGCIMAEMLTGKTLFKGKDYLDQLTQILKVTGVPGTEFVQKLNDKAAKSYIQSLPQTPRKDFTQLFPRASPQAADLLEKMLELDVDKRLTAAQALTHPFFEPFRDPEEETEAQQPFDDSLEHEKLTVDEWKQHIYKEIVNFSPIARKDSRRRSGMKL
Protocol: as §1, §2

CDK4/cyclinD3(h) = target: T17, CDK4/cyclinD3(h) (Homo sapiens, UniProt P11802)
T17 construct: purchased Eurofins (KinaseProfiler platform)
Protocol: as §1, §2

Ret(h) = target: T18, Ret(h) (Homo sapiens, UniProt P07949)
T18 construct: purchased Eurofins (KinaseProfiler platform)
Protocol: as §1, §2

mTOR(h) = target: T19, mTOR(h) (Homo sapiens, UniProt P42345)
T19 construct: purchased Eurofins (KinaseProfiler service)
Protocol: as §1, §2

MKK4(m) = target: T20, MKK4(m) (Mus musculus, UniProt P47809)
T20 construct: purchased Eurofins (KinaseProfiler service)
T20 sequence (P47809 whole entry): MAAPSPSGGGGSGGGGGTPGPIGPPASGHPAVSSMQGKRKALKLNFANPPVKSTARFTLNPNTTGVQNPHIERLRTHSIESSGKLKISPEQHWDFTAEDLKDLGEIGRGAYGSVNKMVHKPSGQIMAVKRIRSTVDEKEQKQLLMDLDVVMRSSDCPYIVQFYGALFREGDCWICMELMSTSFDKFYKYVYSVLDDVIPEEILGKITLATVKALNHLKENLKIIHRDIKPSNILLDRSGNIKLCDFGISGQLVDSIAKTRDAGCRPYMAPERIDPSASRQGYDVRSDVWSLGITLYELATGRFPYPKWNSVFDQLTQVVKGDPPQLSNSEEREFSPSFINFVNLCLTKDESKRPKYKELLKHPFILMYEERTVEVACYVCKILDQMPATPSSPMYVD
Protocol: as §1, §2

Src(T341M)(h) = target: T21, Src(T341M)(h) (Homo sapiens, UniProt P12931, T341M)
T21 construct: purchased Eurofins (KinaseProfiler platform)
T21 sequence (P12931 whole entry T341M): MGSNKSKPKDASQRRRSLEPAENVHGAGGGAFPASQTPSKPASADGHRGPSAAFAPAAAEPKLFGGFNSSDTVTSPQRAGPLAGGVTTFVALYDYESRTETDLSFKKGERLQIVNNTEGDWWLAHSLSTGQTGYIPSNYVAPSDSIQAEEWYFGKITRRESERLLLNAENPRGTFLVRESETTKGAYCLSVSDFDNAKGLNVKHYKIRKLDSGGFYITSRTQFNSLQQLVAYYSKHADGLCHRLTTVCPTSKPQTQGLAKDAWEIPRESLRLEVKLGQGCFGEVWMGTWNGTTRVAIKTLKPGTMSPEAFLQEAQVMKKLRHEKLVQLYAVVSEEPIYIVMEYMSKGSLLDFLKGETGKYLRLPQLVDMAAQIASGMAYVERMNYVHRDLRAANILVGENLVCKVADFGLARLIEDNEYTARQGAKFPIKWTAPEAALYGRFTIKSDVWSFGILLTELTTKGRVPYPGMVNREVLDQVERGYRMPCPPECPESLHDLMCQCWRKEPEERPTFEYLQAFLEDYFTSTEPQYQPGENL
Protocol: as §1, §2

SAPK2a(h) = target: T22, SAPK2a(h) (Homo sapiens, UniProt Q16539)
T22 construct: purchased Eurofins (KinaseProfiler platform)
Protocol: as §1, §2

JNK1α1(h) = target: T23, JNK1α1(h) (Homo sapiens, UniProt P45983)
T23 construct: purchased Eurofins (KinaseProfiler service)
Protocol: as §1, §2

CK1ε(h) = target: T24, CK1ε(h) (Homo sapiens, UniProt P49674)
T24 construct: purchased Eurofins (KinaseProfiler platform)
Protocol: as §1, §2

cSRC(h) = target: T25, cSRC(h) (Homo sapiens, UniProt P12931)
T25 construct: purchased Eurofins (KinaseProfiler platform)
Protocol: as §1, §2

Fyn(h) = target: T26, Fyn(h) (Homo sapiens, UniProt P06241)
T26 construct: purchased Eurofins (KinaseProfiler platform)
Protocol: as §1, §2

JAK1(h) = target: T27, JAK1(h) (Homo sapiens, UniProt P23458)
T27 construct: purchased Eurofins (KinaseProfiler service)
Protocol: as §1, §2

CDK6/cyclinD3(h) = target: T28, CDK6/cyclinD3(h) (Homo sapiens, UniProt Q00534)
T28 construct: purchased Eurofins (KinaseProfiler platform)
Protocol: as §1, §2

MAPKAP-K2(h) = target: T29, MAPKAP-K2(h) (Homo sapiens, UniProt P49137)
T29 construct: purchased Eurofins (KinaseProfiler service)
T29 sequence (P49137 whole entry): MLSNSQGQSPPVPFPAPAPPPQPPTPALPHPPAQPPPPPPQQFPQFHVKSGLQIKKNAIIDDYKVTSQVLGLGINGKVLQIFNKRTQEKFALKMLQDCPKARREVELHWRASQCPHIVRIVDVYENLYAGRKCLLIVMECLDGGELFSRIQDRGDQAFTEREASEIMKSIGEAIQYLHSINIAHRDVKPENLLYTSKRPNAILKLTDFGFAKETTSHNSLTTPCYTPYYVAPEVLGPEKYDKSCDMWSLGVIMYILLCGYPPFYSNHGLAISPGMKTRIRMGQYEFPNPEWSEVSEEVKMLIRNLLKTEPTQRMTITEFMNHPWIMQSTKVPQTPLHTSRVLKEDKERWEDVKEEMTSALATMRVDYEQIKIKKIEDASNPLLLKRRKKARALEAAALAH
Protocol: as §1, §2

c-kit(h) = target: T30, c-kit(h) (Homo sapiens, UniProt P10721)
T30 construct: purchased Eurofins (KinaseProfiler platform)
Protocol: as §1, §2

CDK2/cyclinA(h) = target: T31, CDK2/cyclinA(h) (Homo sapiens, UniProt P24941)
T31 construct: purchased Eurofins (KinaseProfiler platform)
Protocol: as §1, §2

CSK(h) = target: T32, CSK(h) (Homo sapiens, UniProt P41240)
T32 construct: purchased Eurofins (KinaseProfiler platform)
Protocol: as §1, §2

Abl(h) = target: T33, Abl(h) (Homo sapiens, UniProt P00519)
T33 construct: purchased Eurofins (KinaseProfiler platform)
T33 sequence (P00519 whole entry): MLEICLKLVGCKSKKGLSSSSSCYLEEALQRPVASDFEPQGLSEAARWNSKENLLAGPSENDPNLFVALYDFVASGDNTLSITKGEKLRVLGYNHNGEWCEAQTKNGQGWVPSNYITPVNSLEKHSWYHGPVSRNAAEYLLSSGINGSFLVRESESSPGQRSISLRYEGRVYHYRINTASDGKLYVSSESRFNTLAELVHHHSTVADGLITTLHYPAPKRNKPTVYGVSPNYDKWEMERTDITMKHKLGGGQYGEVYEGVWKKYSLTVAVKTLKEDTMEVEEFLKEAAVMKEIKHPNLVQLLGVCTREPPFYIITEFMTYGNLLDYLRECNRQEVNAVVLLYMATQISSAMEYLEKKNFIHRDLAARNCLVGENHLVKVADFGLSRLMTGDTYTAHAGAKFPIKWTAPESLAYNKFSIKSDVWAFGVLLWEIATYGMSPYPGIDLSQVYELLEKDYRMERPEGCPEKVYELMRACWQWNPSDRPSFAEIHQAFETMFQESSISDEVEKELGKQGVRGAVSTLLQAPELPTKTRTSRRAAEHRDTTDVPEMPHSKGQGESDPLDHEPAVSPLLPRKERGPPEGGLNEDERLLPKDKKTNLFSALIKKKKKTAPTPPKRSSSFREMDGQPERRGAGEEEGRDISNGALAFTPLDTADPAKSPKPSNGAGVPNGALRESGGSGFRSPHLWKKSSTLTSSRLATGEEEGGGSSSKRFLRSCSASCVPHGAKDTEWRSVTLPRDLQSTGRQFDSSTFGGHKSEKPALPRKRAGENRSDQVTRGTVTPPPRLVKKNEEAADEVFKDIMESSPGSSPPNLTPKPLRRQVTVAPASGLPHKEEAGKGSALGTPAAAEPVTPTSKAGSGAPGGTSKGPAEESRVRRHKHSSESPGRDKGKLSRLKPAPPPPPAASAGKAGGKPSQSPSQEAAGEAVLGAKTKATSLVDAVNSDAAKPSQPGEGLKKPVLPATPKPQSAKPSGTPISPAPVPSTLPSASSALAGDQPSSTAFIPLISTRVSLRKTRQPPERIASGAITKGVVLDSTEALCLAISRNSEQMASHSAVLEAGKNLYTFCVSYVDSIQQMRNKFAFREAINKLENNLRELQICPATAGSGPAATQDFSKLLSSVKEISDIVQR
Protocol: as §1, §2

BRK(h) = target: T34, BRK(h) (Homo sapiens, UniProt Q13882)
T34 construct: purchased Eurofins (KinaseProfiler platform)
Protocol: as §1, §2

PKBα(h) = target: T35, PKBα(h) (Homo sapiens, UniProt P31749)
T35 construct: purchased Eurofins (KinaseProfiler platform)
Protocol: as §1, §2

SAPK2b(h) = target: T36, SAPK2b(h) (Homo sapiens, UniProt Q15759)
T36 construct: purchased Eurofins (KinaseProfiler platform)
Protocol: as §1, §2

Txk(h) = target: T37, Txk(h) (Homo sapiens, UniProt P42681)
T37 construct: purchased Eurofins (KinaseProfiler platform)
Protocol: as §1, §2

MAPK1(h) = target: T38, MAPK1(h) (Homo sapiens, UniProt P27361)
T38 construct: purchased Eurofins (KinaseProfiler service)
T38 sequence (P27361 2-379 limits assumed): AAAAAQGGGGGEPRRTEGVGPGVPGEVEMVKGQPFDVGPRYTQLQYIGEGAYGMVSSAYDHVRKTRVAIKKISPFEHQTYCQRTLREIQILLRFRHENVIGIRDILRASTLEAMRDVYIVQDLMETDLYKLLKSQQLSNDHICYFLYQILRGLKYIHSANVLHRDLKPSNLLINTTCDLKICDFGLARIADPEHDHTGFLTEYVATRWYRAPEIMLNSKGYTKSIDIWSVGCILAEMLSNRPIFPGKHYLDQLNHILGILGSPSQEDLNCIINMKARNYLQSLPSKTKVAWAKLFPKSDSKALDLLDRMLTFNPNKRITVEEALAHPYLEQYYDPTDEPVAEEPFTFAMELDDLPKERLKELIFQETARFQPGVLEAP
Protocol: as §1, §2

Ros(h) = target: T39, Ros(h) (Homo sapiens, UniProt P08922)
T39 construct: purchased Eurofins (KinaseProfiler platform)
Protocol: as §1, §2

IC50 (JAK2(h)): 141 nM | IC50 (JNK3(h)): 279 nM | IC50 (Flt3(h)): 12 nM | IC50 (MAP4K4(h)): 63 nM | IC50 (MKK6(h)): > 10000 nM | IC50 (Rse(h)): > 10000 nM | IC50 (Yes(h)): 204 nM | IC50 (B-Raf(h)): 91 nM | IC50 (Lck(h)activated): 1310 nM | IC50 (TYK2(h)): 117 nM | IC50 (Src(1-530)(h)): 827 nM | IC50 (Flt1(h)): 104 nM | IC50 (Hck(h)activated): 418 nM | IC50 (FAK(h)): 469 nM | IC50 (Tie2(h)): 2060 nM | IC50 (SAPK4(h)): > 10000 nM | IC50 (CDK4/cyclinD3(h)): > 10000 nM | IC50 (Ret(h)): 756 nM | IC50 (mTOR(h)): > 10000 nM | IC50 (MKK4(m)): > 10000 nM | IC50 (Src(T341M)(h)): 1010 nM | IC50 (SAPK2a(h)): > 10000 nM | IC50 (JNK1α1(h)): 1170 nM | IC50 (CK1ε(h)): 385 nM | IC50 (cSRC(h)): 367 nM | IC50 (Fyn(h)): 373 nM | IC50 (JAK1(h)): 663 nM | IC50 (CDK6/cyclinD3(h)): > 10000 nM | IC50 (MAPKAP-K2(h)): > 10000 nM | IC50 (c-kit(h)): 2840 nM | IC50 (CDK2/cyclinA(h)): > 10000 nM | IC50 (CSK(h)): > 10000 nM | IC50 (Abl(h)): 152 nM | IC50 (BRK(h)): 775 nM | IC50 (PKBα(h)): > 10000 nM | IC50 (SAPK2b(h)): > 10000 nM | IC50 (Txk(h)): 227 nM | IC50 (MAPK1(h)): > 10000 nM | IC50 (Ros(h)): > 10000 nM
SMILES: c1cn2c(n1)c(Nc1ccc(N3CCOCC3)cc1)nc1ccc(-c3cn[nH]c3)cc12 [Compound 1]
